From publication PMC2664101 (Journal of medicinal chemistry, 2009)
Where two headings read alike, the source gives them in different places.

Legend:
[1] = test system: hypoxia-ischemia induced cerebral palsy; settings: cited from earlier work; for fetal brain NOS activity in vivo / toxicity / cardiovascular effects / distribution to fetal brain / eNOS regulated blood pressure: rabbit; for hypoxia-ischemia induced deaths / number of newborn kits exhibiting symptoms of cerebral palsy: rabbit model for cerebral palsy
rat nNOS = rat nNOS (Rattus norvegicus, UniProt P29476); settings: comparing 27 with 16
[2] = following maternal administration

Row | SMILES | fetal brain NOS activity in vivo [1, 2] | toxicity [1, 2] | hypoxia-ischemia induced deaths [1] | number of newborn kits exhibiting symptoms of cerebral palsy [1] | cardiovascular effects ([1]; in vivo) | distribution to fetal brain ([1]; in vivo) | eNOS regulated blood pressure ([1]; in vivo) | drop in nNOS inhibitory potency (rat nNOS) | toxicity ([1]; in vivo)
1 | Cc1cc(N)nc(C[C@H]2CNC[C@H]2NCCNCc2ccc(Cl)cc2)c1.Cl [compound 16] | inhibit fetal brain NOS activity in vivo | non-toxic | prevent hypoxia-ischemia induced deaths | reduce the number of newborn kits exhibiting symptoms of cerebral palsy | without cardiovascular effects | distribute to fetal brain | without affecting the eNOS regulated blood pressure |  | 
2 | Cc1cc(C[C@H]2CNC[C@H]2NCCNCc2ccc(Cl)cc2)cc(N)n1.Cl (racemic) [compound 27, N^1-{(±)-4′-[(2”-amino-6”-methylpyridin-4”-yl)methyl]pyrrolidin-3′-yl}-N^2-(4′-chlorobenzyl)ethane-1,2-diamine tetrahydrochloride] |  |  |  |  |  |  |  | more than 200 fold | 
3 | Cc1cc(N)nc(C[C@H]2CNC[C@H]2NCCNCCc2cccc(F)c2)c1 [compound 26] | inhibit fetal brain NOS activity in vivo |  | prevent hypoxia-ischemia induced deaths | reduce the number of newborn kits exhibiting symptoms of cerebral palsy | without cardiovascular effects | distribute to fetal brain | without affecting the eNOS regulated blood pressure |  | non-toxic
